In brackets after ≈: the same amount, converted by molar mass.
Columns and labels:
S. aureus ATCC 9144 = test: MIC microdilution (Table I-1); assay type: cell-based, Staphylococcus aureus; settings: Staphylococcus aureus, ATCC9144, read after 18 hours, read-out: MIC
Experimental: (§1) The microdilution method recommended by the Clinical and Laboratory Standard Institute [M07-A8, Vol. 29, N^o 2] was used. The activity of indolic compounds was tested against 29 bacterial strains belonging to 17 different species and 12 different genera (Staphylococcus, Streptococcus, Enterococcus, Listeria, Bacillus, Haemophilus, Escherichia, Klebsiella, Enterobacter, Serratia, Pseudomonas, and Acinetobacter). Bacterial inocula were prepared in Mueller Hinton broth (MH2, bioMerieux, Marcy L'Etoile, France), supplemented with 10% sheep blood for fastidious species (i.e., Streptococcus pneumoniae and Haemophilus influenzae). They were dispensed in 96 well microtiter plates (5×10^5 CFU/ml of final inoculum). Indolic compounds were added to the wells as to obtain two-fold serial concentrations (0.50-128 mg/L of final concentrations). Plates were incubated at 37° C. in ambient air, or at 37° C. in 5% CO2 enriched atmosphere for fastidious species. […] Drug-free cultures served as growth controls. Cultures receiving gentamicin, ciprofloxacin or cefotaxime served as positive controls.

[1] = test system: S. aureus CIP 65.25 (MRSA); test: MIC microdilution (Table I-1); assay type: cell-based, Staphylococcus aureus; settings: Staphylococcus aureus, read after 18 hours, read-out: MIC
Experimental: as §1

[2] = test system: S. aureus ATCC 33592 (MRSA); test: MIC microdilution (Table I-1); assay type: cell-based, Staphylococcus aureus; settings: Staphylococcus aureus, read after 18 hours, read-out: MIC
Experimental: as §1

S. aureus ATCC 29213 = test: MIC microdilution (Table I-1); assay type: cell-based, Staphylococcus aureus; settings: Staphylococcus aureus, ATCC29213, read after 18 hours, read-out: MIC
Experimental: as §1

S. aureus CIP 103428 = test: MIC microdilution (Table I-1); assay type: cell-based, Staphylococcus aureus; settings: Staphylococcus aureus, CIP103428, read after 18 hours, read-out: MIC
Experimental: as §1

S. aureus CIP 65.6 = test: MIC microdilution (Table I-1); assay type: cell-based, Staphylococcus aureus; settings: Staphylococcus aureus, CIP65, read after 18 hours, read-out: MIC
Experimental: as §1

S. aureus ATCC 6538 = test: MIC microdilution (Table I-1); assay type: cell-based, Staphylococcus aureus; settings: Staphylococcus aureus, ATCC6538, read after 18 hours, read-out: MIC
Experimental: as §1

[3] = test system: S. aureus ATCC 106414 (VISA); test: MIC microdilution (Table I-1); assay type: cell-based, Staphylococcus aureus; settings: Staphylococcus aureus, read after 18 hours, read-out: MIC
Experimental: as §1

S. aureus SA-1199B = test: MIC microdilution (Table I-1); assay type: cell-based, Staphylococcus aureus; settings: Staphylococcus aureus, SA1199B, 18 h
Experimental: as §1

[4] = test system: S. epidermidis CIP 103627; test: MIC microdilution (Table I-1); assay type: cell-based, Staphylococcus epidermidis; settings: Staphylococcus epidermidis, CIP103627, read after 18 hours, read-out: MIC
Experimental: as §1

S. epidermidis CIP 81.55 = test: MIC microdilution (Table I-1); assay type: cell-based, Staphylococcus epidermidis; settings: Staphylococcus epidermidis, CIP81, read after 18 hours, read-out: MIC
Experimental: as §1

[5] = test system: S. epidermidis ATCC 12228; test: MIC microdilution (Table I-1); assay type: cell-based, Staphylococcus epidermidis; settings: Staphylococcus epidermidis, ATCC12228, read after 18 hours, read-out: MIC
Experimental: as §1

[6] = test system: KB (human mouth carcinoma); test: In vitro cytotoxicity; assay type: cell-based; settings: KB; for inhibition at 10 µM: 10^−5 M, read-out: % of cellular growth inhibition; for inhibition at 1 µM: 10^−6 M, read-out: % of cellular growth inhibition (converted)
Experimental: (§2) In vitro cytotoxicity was assayed on three cell lines—KB (human mouth carcinoma), MCR5 (human lung fibroblast) and HCT116 (human colon tumor). Results are presented in table III as % of cellular growth inhibition in presence of 10^−5 M and 10^−6 M of the tested bis-indolic derivatives.

[7] = test system: MRC5 (human lung fibroblast); test: In vitro cytotoxicity; assay type: cell-based; settings: for inhibition at 10 µM: MRC5, 10^−5 M, read-out: % of cellular growth inhibition; for inhibition at 1 µM: MRC5, 10^−6 M, read-out: % of cellular growth inhibition (converted)
Experimental: as §2

[8] = test system: HCT116 (human colon tumor); test: In vitro cytotoxicity; assay type: cell-based; settings: for inhibition at 10 µM: HCT-116, HCT116, 10^−5 M, read-out: % of cellular growth inhibition; for inhibition at 1 µM: HCT-116, HCT116, 10^−6 M, read-out: % of cellular growth inhibition (converted)
Experimental: as §2

S. aureus ATCC 25923 = test: MIC microdilution (Table I-1); assay type: cell-based; settings: Staphylococcus aureus, ATCC25923, read after 18 hours
Experimental: as §1

[9] = test system: Serratia marcescens CIP 103551; test: MIC microdilution (Table I-1); assay type: cell-based; settings: CIP103551, read after 18 hours
Experimental: as §1

[10] = test system: Escherichia coli ATCC 25922; test: MIC microdilution (Table I-1); assay type: cell-based; settings: ATCC25922, read after 18 hours
Experimental: as §1

[11] = test system: Bacillus subtilis CIP 5262; test: MIC microdilution (Table I-1); assay type: cell-based; settings: CIP5262, read after 18 hours, read-out: MIC
Experimental: as §1

[12] = test system: S. pyogenes (group A) CIP 104226; test: MIC microdilution (Table I-1); assay type: cell-based; settings: Streptococcus pyogenes, CIP104226, read after 18 hours, read-out: MIC
Experimental: as §1

E. faecium CIP 54.32 = test: MIC microdilution (Table I-1); assay type: cell-based; settings: Enterococcus faecium, CIP54, read after 18 hours, read-out: MIC
Experimental: as §1

[13] = test system: S. agalactiae (group B) ATCC 12400; test: MIC microdilution (Table I-1); assay type: cell-based; settings: Streptococcus agalactiae, ATCC12400, read after 18 hours, read-out: MIC
Experimental: as §1

[14] = test system: Enterobacter cloacae ATCC 13047; test: MIC microdilution (Table I-1); assay type: cell-based; settings: ATCC13047, read after 18 hours
Experimental: as §1

E. faecalis ATCC 29212 = test: MIC microdilution (Table I-1); assay type: cell-based; settings: Enterococcus faecalis, ATCC29212, read after 18 hours, read-out: MIC
Experimental: as §1

[15] = test system: Pseudomonas aeruginosa CIP 5933; test: MIC microdilution (Table I-1); assay type: cell-based; settings: CIP5933, read after 18 hours
Experimental: as §1

[16] = test system: Haemophilus influenzae ATCC 49766; test: MIC microdilution (Table I-1); assay type: cell-based; settings: ATCC49766; Haemophilus influenzae ATCC 49766; read after 18 hours; read-out: MIC
Experimental: as §1

S. pneumoniae ATCC 49619 = test: MIC microdilution (Table I-1); assay type: cell-based; settings: Streptococcus pneumoniae, ATCC49619, read after 18 hours
Experimental: as §1

[17] = test system: Klebsiella pneumoniae ATCC 35657; test: MIC microdilution (Table I-1); assay type: cell-based; settings: ATCC35657, read after 18 hours, read-out: MIC
Experimental: as §1

S. mitis CIP 103335 = test: MIC microdilution (Table I-1); assay type: cell-based; settings: Streptococcus mitis, CIP103335, read after 18 hours, read-out: MIC
Experimental: as §1

[18] = test system: Acinetobacter baumanii ATCC 19606; test: MIC microdilution (Table I-1); assay type: cell-based; settings: Acinetobacter baumannii, ATCC19606, read after 18 hours
Experimental: as §1

[19] = test system: Listeria innocua CIP 80.11; test: MIC microdilution (Table I-1); assay type: cell-based; settings: CIP80, read after 18 hours, read-out: MIC
Experimental: as §1

S. pneumoniae ATCC 6303 = test: MIC microdilution (Table I-1); assay type: cell-based, Streptococcus pneumoniae; settings: Streptococcus pneumoniae, ATCC6303, read after 18 hours, read-out: MIC
Experimental: as §1

## CC(C)(C)OC(=O)NCC(NC(=O)C(=O)c1c[nH]c2cc(Br)ccc12)c1c[nH]c2ccccc12 (centres unmarked) [Compound 3, tert-Butyl(2-(2-(6-bromo-1H-indol-3-yl)-2-oxoacetamido)-2-(1H-indol-3-yl)ethyl) carbamate]
S. aureus ATCC 9144
  MIC: 4 µg/mL (≈ 7.61 µM)
[1]
  MIC: 4 µg/mL (≈ 7.61 µM)
[2]
  MIC: 4 µg/mL (≈ 7.61 µM)
S. aureus ATCC 29213
  MIC: 2 µg/mL (≈ 3.81 µM)
S. aureus CIP 103428
  MIC: 4 µg/mL (≈ 7.61 µM)
S. aureus CIP 65.6
  MIC: 4 µg/mL (≈ 7.61 µM)
S. aureus ATCC 6538
  MIC: 4 µg/mL (≈ 7.61 µM)
[3]
  MIC: 4 µg/mL (≈ 7.61 µM)
S. aureus SA-1199B
  MIC: 4 µg/mL (≈ 7.61 µM)
[4]
  MIC: > 16 µg/mL
S. epidermidis CIP 81.55
  MIC: 8 µg/mL (≈ 15.2 µM)
[5]
  MIC: 4 µg/mL (≈ 7.61 µM)
[6]
  inhibition at 10 µM: 100 ± 1%
  inhibition at 1 µM: 4%
[7]
  inhibition at 10 µM: 98 ± 1%
  inhibition at 1 µM: 0%
[8]
  inhibition at 10 µM: 97 ± 1%
  inhibition at 1 µM: 0%
S. aureus ATCC 25923
  MIC: 4 µg/mL (≈ 7.61 µM)
[9]
  MIC: > 128 µg/mL
[10]
  MIC: > 128 µg/mL
[11]
  MIC: 128 µg/mL (≈ 244 µM)
[12]
  MIC: 128 µg/mL (≈ 244 µM)
E. faecium CIP 54.32
  MIC: 32 µg/mL (≈ 60.9 µM)
[13]
  MIC: 64 µg/mL (≈ 122 µM)
[14]
  MIC: > 128 µg/mL
E. faecalis ATCC 29212
  MIC: > 128 µg/mL
[15]
  MIC: > 128 µg/mL
[16]
  MIC: 32 µg/mL (≈ 60.9 µM)
S. pneumoniae ATCC 49619
  MIC: > 128 µg/mL
[17]
  MIC: > 128 µg/mL
S. mitis CIP 103335
  MIC: > 128 µg/mL
[18]
  MIC: > 128 µg/mL
[19]
  MIC: > 128 µg/mL
S. pneumoniae ATCC 6303
  MIC: 64 µg/mL (≈ 122 µM)

## O=C(C(=O)N1CCOCC1c1c[nH]c2ccc(Br)cc12)c1c[nH]c2ccc(Br)cc12 (centres unmarked) [Compound 6e, 1-(5-Bromo-1H-indol-3-yl)-2-(3-(5-bromo-1H-indol-3-yl)morpholino)ethane-1,2-dione]
[6]
  inhibition at 10 µM: 29 ± 6%
  inhibition at 1 µM: 0%
[7]
  inhibition at 10 µM: 0%
  inhibition at 1 µM: 0%
[8]
  inhibition at 10 µM: 24 ± 6%
  inhibition at 1 µM: 3%

From patent publication US9321722B2, “Bis-indolic derivatives, their uses in particular as antibacterials” (UNIVERSITE JOSEPH FOURIER, priority 2011, dated 2016)
